Measurements as given in patent US10538555B2, “Macrocyclic inhibitors of the PD-1/PD-L1 and CD80(B7-1)/PD-L1 protein/protein interactions” (BRISTOL-MYERS SQUIBB COMPANY, priority 2014, dated 2020).
*1 amine or outer side, *2 acyl side, *3 side chain or, on linkers, in order; H or OH if unused. Where a SMILES comes first, the peptide text is derived from it. Bridges are numbered along the chain shown (N, C = ends). [ ]: non-standard residue; d: D form. ξ: configuration not given here. X5 = O=C(O)CC[C@H](N[*:1])C(=O)C1C[C@H](O)C[C@H]1C(=O)[*:2]; Phe(3,4,5-F3) = N[C@@H](Cc1cc(F)c(F)c(F)c1)C(=O)O; Trp(7-Br) = N[C@@H](Cc1c[nH]c2c(Br)cccc12)C(=O)O; Phe(3,4-F2) = N[C@@H](Cc1ccc(F)c(F)c1)C(=O)O; Trp(2-Me) = Cc1[nH]c2ccccc2c1C[C@H](N)C(=O)O; NMePhe(4-F) = CN[C@@H](Cc1ccc(F)cc1)C(=O)O; Phe(4-Cl) = N[C@@H](Cc1ccc(Cl)cc1)C(=O)O; Phe(4-F) = N[C@@H](Cc1ccc(F)cc1)C(=O)O; d(cisHyp) = O=C(O)[C@H]1C[C@@H](O)CN1; Bta = N[C@@H](Cc1csc2ccccc12)C(=O)O; Hyp = O=C(O)[C@@H]1C[C@@H](O)CN1; NMeF = CN[C@@H](Cc1ccccc1)C(=O)O; X1 = O=C([C@H]1COCCN1[*:1])[*:2]; dNMeF = CN[C@H](Cc1ccccc1)C(=O)O; dHyp = O=C(O)[C@H]1C[C@H](O)CN1; NMehSer = CN[C@@H](CCO)C(=O)O; NMeNle = CCCC[C@H](NC)C(=O)O; Pip = O=C(O)[C@@H]1CCCCN1; dPip = O=C(O)[C@H]1CCCCN1; hSer = N[C@@H](CCO)C(=O)O; NMeA = CN[C@@H](C)C(=O)O; Orn = NCCC[C@H](N)C(=O)O; Dab = NCC[C@H](N)C(=O)O; Dap = NC[C@H](N)C(=O)O; ξC = NC(CS)C(=O)O

Each compound was assayed against T1, Human PD-L1/PD-1 (Homo sapiens, UniProt Q9NZQ7) (assay: HTRF Human PD-L1/PD-1 binding assay (PD-1-Ig/PD-L1-His)). Settings: PD-L1-His 10 nM, PD-1-Ig 20 nM; class symbol; read-out: HTRF Human PD-L1/PD-1 Binding Assay IC50 Range.
T1 construct: TVMV protease cleavage site (C); made in house; host or cells: HEK293T cells
T1 sequence (Q9NZQ7 with tags, fused parts or gaps): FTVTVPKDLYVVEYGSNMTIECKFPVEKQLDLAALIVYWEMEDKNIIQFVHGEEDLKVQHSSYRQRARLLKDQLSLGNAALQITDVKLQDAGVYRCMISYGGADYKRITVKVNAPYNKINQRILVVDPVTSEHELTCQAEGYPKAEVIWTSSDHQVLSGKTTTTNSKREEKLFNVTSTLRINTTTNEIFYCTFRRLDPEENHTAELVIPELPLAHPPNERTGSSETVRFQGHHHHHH
In short: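 Inhibitors were preincubated 15 min with human PD-L1(18-239)-His (10 nM final), then PD-1(25-167)-Ig (20 nM final) was added for 15 min in dPBS/0.1% BSA/0.05% Tween-20. Eu-cryptate anti-Ig (1 nM) and APC anti-His (20 nM) were added; 665/620 nm ratio read after 30 min.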

IC50 [nM]	SMILES
1 to 9.9	CCCC[C@H]1C(=O)N2C[C@@H](O)C[C@@H]2C(=O)N[C@@H](CC(=O)O)C(=O)N[C@@H](C(C)C)C(=O)N(C)[C@@H](Cc2ccccc2)C(=O)N[C@@H](Cc2ccc(O)cc2)C(=O)N2C[C@H](O)C[C@@H]2C(=O)N[C@@H](Cc2c[nH]c3ccccc23)C(=O)N[C@@H](Cc2ccc(O)cc2)C(=O)N[C@@H](CCCN)C(=O)N[C@H](C(=O)NCC(N)=O)CSCC(=O)N[C@@H](Cc2cc(F)c(F)c(F)c2)C(=O)N(C)[C@@H](Cc2ccccc2)C(=O)N1C [Example 9368] ({CH2CO}-[Phe(3,4,5-F3)][NMeF][NMeNle][dHyp]DV[NMeF]Y[d(cisHyp)]WY[Orn]CG-NH2; thioether N-13)
100 to 990	CCCC[C@H]1C(=O)N2CCC[C@@H]2C(=O)N[C@@H](CC(=O)O)C(=O)N[C@@H](C(C)C)C(=O)N(C)[C@@H](Cc2ccccc2)C(=O)N[C@@H](Cc2ccc(O)cc2)C(=O)N2CCCC[C@@H]2C(=O)N[C@H](CCC(=O)O)C(=O)N[C@@H](Cc2ccc(O)cc2)C(=O)N[C@@H](CCCN)C(=O)N[C@H](C(=O)NCC(N)=O)CSCC(=O)N[C@@H](Cc2cc(F)c(F)c(F)c2)C(=O)N(C)[C@@H](Cc2ccc(F)cc2)C(=O)N1C [Example 10610] ({CH2CO}-[Phe(3,4,5-F3)][NMePhe(4-F)][NMeNle][dP]DV[NMeF]Y[dPip][dE]Y[Orn]CG-NH2; thioether N-13)
1 to 9.9	CCCC[C@H]1C(=O)N2CCC[C@@H]2C(=O)N[C@@H](CC(=O)O)C(=O)N[C@@H](C(C)C)C(=O)N(C)[C@@H](Cc2ccccc2)C(=O)N[C@@H](CCC(=O)O)C(=O)N2CCOC[C@@H]2C(=O)N[C@@H](Cc2c[nH]c3ccccc23)C(=O)N[C@@H](Cc2ccc(O)cc2)C(=O)N[C@@H](CCN)C(=O)N[C@H](C(=O)NCC(N)=O)CSCC(=O)N[C@@H](Cc2cc(F)c(F)c(F)c2)C(=O)N(C)[C@@H](Cc2ccc(F)cc2)C(=O)N1C [Example 10605] ({CH2CO}-[Phe(3,4,5-F3)][NMePhe(4-F)][NMeNle][dP]DV[NMeF]E[X1]WY[Dab]CG-NH2; thioether N-13)
1 to 9.9	CCCC[C@H]1C(=O)N(C)[C@@H](CCCC)C(=O)N[C@@H](CCCNC(=N)N)C(=O)NC(C(=O)NCC(N)=O)CSCC(=O)N[C@@H](Cc2ccc(O)cc2)C(=O)N(C)[C@@H](C)C(=O)N[C@@H](CC(N)=O)C(=O)N2CCC[C@H]2C(=O)N[C@@H](CO)C(=O)N[C@@H](CCO)C(=O)N2C[C@H](O)C[C@H]2C(=O)N[C@@H](Cc2c[nH]c3ccccc23)C(=O)N[C@@H](CO)C(=O)N[C@@H](Cc2csc3ccccc23)C(=O)N1C (stereo partly drawn) [Example 10035] ({CH2CO}-Y[NMeA]NPS[hSer][Hyp]WS[Bta][NMeNle][NMeNle]R[ξC]G-NH2; thioether N-14)
10 to 99.9	CCCC[C@H]1C(=O)N2C[C@@H](O)C[C@@H]2C(=O)N[C@@H](CC(=O)O)C(=O)N[C@@H](C(C)C)C(=O)N(C)[C@H](Cc2ccccc2)C(=O)N[C@@H](Cc2ccc(OC)cc2)C(=O)N2C[C@@H](O)C[C@@H]2C(=O)N[C@@H](Cc2c[nH]c3ccccc23)C(=O)N[C@@H](Cc2ccc(O)cc2)C(=O)N[C@@H](CC(C)C)C(=O)N[C@H](C(=O)NCC(N)=O)CSCC(=O)N[C@@H](Cc2ccc(F)c(F)c2)C(=O)N(C)[C@@H](Cc2ccccc2)C(=O)N1C [Example 9226] ({CH2CO}-[Phe(3,4-F2)][NMeF][NMeNle][dHyp]DV[dNMeF]Y(Me)[dHyp]WYLCG-NH2; thioether N-13)
10 to 99.9	CCCC[C@H]1C(=O)N(C)[C@@H](CCCC)C(=O)N[C@@H](CCC(=O)O)C(=O)N[C@H](C(=O)NCC(N)=O)CSCC(=O)N[C@@H](Cc2ccc(O)cc2)C(=O)N(C)[C@@H](C)C(=O)N[C@@H](CC(=O)O)C(=O)N2CCC[C@H]2C(=O)N[C@@H](Cc2c[nH]cn2)C(=O)N[C@@H](CCC(N)=O)C(=O)N2C[C@H](O)C[C@H]2C(=O)N[C@@H](Cc2c[nH]c3ccccc23)C(=O)N[C@@H](CCC(=O)O)C(=O)N[C@@H](Cc2c[nH]c3ccccc23)C(=O)N1C [Example 5158] ({CH2CO}-Y[NMeA]DPHQ[Hyp]WEW[NMeNle][NMeNle]ECG-NH2; thioether N-14)
1 to 9.9	CCCC[C@H]1C(=O)N(C)[C@@H](CCCC)C(=O)N[C@@H](C)C(=O)N[C@H](C(=O)NCC(N)=O)CSCC(=O)N[C@@H](Cc2ccc(O)cc2)C(=O)N(C)[C@@H](C)C(=O)N[C@@H](CC(N)=O)C(=O)N2CCC[C@H]2C(=O)N[C@@H](Cc2cnc[nH]2)C(=O)N[C@@H](CCC(N)=O)C(=O)N2C[C@H](O)C[C@H]2C(=O)N[C@@H](Cc2c[nH]c3ccccc23)C(=O)N[C@@H](CO)C(=O)N[C@@H](Cc2c(C)[nH]c3ccccc23)C(=O)N1C [Example 1285] ({CH2CO}-Y[NMeA]NPHQ[Hyp]WS[Trp(2-Me)][NMeNle][NMeNle]ACG-NH2; thioether N-14)
10 to 99.9	CCCC[C@H]1C(=O)N2CCC[C@@H]2C(=O)N2CCCC[C@H]2C(=O)N[C@@H](C(C)C)C(=O)N(C)[C@@H](Cc2ccccc2)C(=O)N[C@@H](Cc2ccc(O)cc2)C(=O)N2CCCC[C@@H]2C(=O)N[C@@H](Cc2c[nH]c3ccccc23)C(=O)N[C@@H](Cc2ccc(O)cc2)C(=O)N[C@@H](CC(C)C)C(=O)N[C@H](C(=O)NCC(N)=O)CSCC(=O)N[C@@H](Cc2cc(F)c(F)c(F)c2)C(=O)N(C)[C@@H](Cc2ccccc2)C(=O)N1C [Example 3217] ({CH2CO}-[Phe(3,4,5-F3)][NMeF][NMeNle][dP][Pip]V[NMeF]Y[dPip]WYLCG-NH2; thioether N-13)
1 to 9.9	COCC[C@H]1C(=O)N2C[C@@H](O)C[C@@H]2C(=O)N[C@@H](CC(=O)O)C(=O)N[C@@H](C(C)C)C(=O)N(C)[C@H](Cc2ccccc2)C(=O)N[C@@H](Cc2ccc(O)cc2)C(=O)N2C[C@@H](O)C[C@@H]2C(=O)N[C@@H](Cc2c[nH]c3ccccc23)C(=O)N[C@@H](Cc2ccc(O)cc2)C(=O)N[C@@H](CC(C)C)C(=O)N[C@H](C(=O)NCC(N)=O)CSCC(=O)N[C@@H](Cc2ccc(F)c(F)c2)C(=O)N(C)[C@@H](Cc2ccccc2)C(=O)N1C [Example 9234] ({CH2CO}-[Phe(3,4-F2)][NMeF][NMehSer](Me)[dHyp]DV[dNMeF]Y[dHyp]WYLCG-NH2; thioether N-13)
10 to 99.9	CCCC[C@H]1C(=O)N(C)[C@@H](CCCC)C(=O)N[C@@H](CCC(=O)O)C(=O)N[C@H](C(=O)NCC(N)=O)CSCC(=O)N[C@@H](Cc2ccc(OC)cc2)C(=O)N(C)[C@@H](C)C(=O)N[C@@H](CC(=O)O)C(=O)N2CCC[C@H]2C(=O)N[C@@H](CN)C(=O)N[C@@H](CCC(=O)O)C(=O)N2C[C@H](O)C[C@H]2C(=O)N[C@@H](Cc2c[nH]c3ccccc23)C(=O)N[C@@H](CC(=O)O)C(=O)N[C@@H](Cc2c[nH]c3ccccc23)C(=O)N1C [Example 7133] ({CH2CO}-Y(Me)[NMeA]DP[Dap]E[Hyp]WDW[NMeNle][NMeNle]ECG-NH2; thioether N-14)
1 to 9.9	CCCC[C@H]1C(=O)N(C)[C@@H](CCCC)C(=O)N[C@@H](CCCNC(=N)N)C(=O)N[C@H](C(=O)NCC(N)=O)CSCC(=O)N[C@@H](Cc2ccc(Cl)cc2)C(=O)N(C)[C@@H](C)C(=O)N[C@@H](CC(N)=O)C(=O)N2CCC[C@H]2C(=O)N[C@@H](Cc2cnc[nH]2)C(=O)N[C@@H](CCC(=O)O)C(=O)C2C[C@H](O)C[C@H]2C(=O)N[C@@H](Cc2c[nH]c3ccccc23)C(=O)N[C@@H](CCN)C(=O)N[C@@H](Cc2c[nH]c3ccccc23)C(=O)N1C (stereo partly drawn) [Example 7079] ({CH2CO}-[Phe(4-Cl)][NMeA]NPH[X5]W[Dab]W[NMeNle][NMeNle]RCG-NH2; thioether N-13)
1 to 9.9	CCCC[C@H]1C(=O)N(C)[C@@H](CCOC)C(=O)N[C@@H](CN)C(=O)N[C@H](C(=O)NCC(N)=O)CSCC(=O)N[C@@H](Cc2ccc(O)cc2)C(=O)N(C)[C@@H](C)C(=O)N[C@@H](CC(=O)O)C(=O)N2CCC[C@H]2C(=O)N[C@@H](Cc2c[nH]cn2)C(=O)N[C@@H](CCC(N)=O)C(=O)N2C[C@H](O)C[C@H]2C(=O)N[C@@H](Cc2c[nH]c3ccccc23)C(=O)N[C@@H](CO)C(=O)N[C@@H](Cc2c[nH]c3ccccc23)C(=O)N1C [Example 10145] ({CH2CO}-Y[NMeA]DPHQ[Hyp]WSW[NMeNle][NMehSer](Me)[Dap]CG-NH2; thioether N-14)
1 to 9.9	CCCC[C@H]1C(=O)N2CCC[C@@H]2C(=O)N[C@@H](CC(=O)O)C(=O)N[C@@H](C(C)C)C(=O)N(C)[C@@H](Cc2ccccc2)C(=O)N[C@@H](CCN)C(=O)N2CCC[C@@H]2C(=O)N[C@@H](Cc2c[nH]c3ccccc23)C(=O)N[C@@H](Cc2ccc(O)cc2)C(=O)N[C@@H](CC(C)C)C(=O)N[C@H](C(=O)NCC(N)=O)CSCC(=O)N[C@@H](Cc2ccc(F)cc2)C(=O)N(C)[C@@H](Cc2ccccc2)C(=O)N1C [Example 10105] ({CH2CO}-[Phe(4-F)][NMeF][NMeNle][dP]DV[NMeF][Dab][dP]WYLCG-NH2; thioether N-13)

Same assay, conditions: PD-L1-His 10 nM, PD-1-Ig 20 nM; read-out: HTRF Human PD-L1/PD-1 Binding Assay IC50

IC50 [nM]	SMILES
8.2	CCCC[C@H]1C(=O)N2CCOC[C@@H]2C(=O)N[C@@H](CC(=O)O)C(=O)N[C@@H](C(C)C)C(=O)N(C)[C@@H](Cc2ccccc2)C(=O)N[C@@H](CCCN)C(=O)N2CCC[C@@H]2C(=O)N[C@@H](Cc2c[nH]c3ccccc23)C(=O)N[C@@H](Cc2ccc(O)cc2)C(=O)N[C@@H](CCOC)C(=O)N[C@H](C(=O)NCC(N)=O)CSCC(=O)N[C@@H](Cc2cc(F)c(F)c(F)c2)C(=O)N(C)[C@@H](Cc2ccccc2)C(=O)N1C [Example 10190] ({CH2CO}-[Phe(3,4,5-F3)][NMeF][NMeNle][X1]DV[NMeF][Orn][dP]WY[hSer](Me)CG-NH2; thioether N-13)
451	CCCC[C@H]1C(=O)N(C)[C@@H](CCCC)C(=O)N[C@@H](C)C(=O)N[C@H](C(=O)NCC(N)=O)CSCC(=O)N[C@@H](Cc2ccc(O)cc2)C(=O)N(C)[C@@H](C)C(=O)N[C@@H](CC(N)=O)C(=O)N2CCC[C@H]2C(=O)N[C@@H](Cc2cnc[nH]2)C(=O)N[C@@H](CCC(N)=O)C(=O)N2C[C@H](O)C[C@H]2C(=O)N[C@@H](Cc2c[nH]c3ccccc23)C(=O)N[C@@H](CO)C(=O)N[C@@H](Cc2c[nH]c3c(Br)cccc23)C(=O)N1C [Example 1541] ({CH2CO}-Y[NMeA]NPHQ[Hyp]WS[Trp(7-Br)][NMeNle][NMeNle]ACG-NH2; thioether N-14)
